Data: ChEMBL document CHEMBL1201862, “PubChem BioAssay data set” (2004)
Calls of active or inactive are those of the source.

Tests used:
[1] = biological target: Proto-oncogene tyrosine-protein kinase receptor Ret (Homo sapiens, UniProt P07949); assay type: functional;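 also: measured within a kinome-wide profiling panel, RET as the panel member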
Caspase-8 = Caspase-8 (Homo sapiens, UniProt Q14790); assay: inhibitors of purified CASP8 protease – biochemical, Z-IETD-R110 fluorescence, cherry-picked samples, selectivity assay for caspase-6 inhibitor project, dose response (AID 743294)
Chain of Caspase-8 (Q14790 217-374 limits assumed): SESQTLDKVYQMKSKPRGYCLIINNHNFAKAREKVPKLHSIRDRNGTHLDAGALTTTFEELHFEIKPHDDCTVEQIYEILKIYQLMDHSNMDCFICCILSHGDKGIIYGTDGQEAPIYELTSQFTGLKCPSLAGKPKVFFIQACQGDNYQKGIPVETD
Chain of Caspase-8 (Q14790 385-479 limits assumed): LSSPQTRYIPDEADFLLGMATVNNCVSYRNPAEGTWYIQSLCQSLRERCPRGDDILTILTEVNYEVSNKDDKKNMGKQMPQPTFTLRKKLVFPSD

Caspase-9 = Caspase-9 (Homo sapiens, UniProt P55211); assay: inhibitors of purified CASP9 protease – biochemical, fluorescence, plate reader, cherry-picked samples, selectivity assay for caspase-6 inhibitor project, dose response (AID 743293)
Chain of Caspase-9 (P55211 1-315 limits assumed): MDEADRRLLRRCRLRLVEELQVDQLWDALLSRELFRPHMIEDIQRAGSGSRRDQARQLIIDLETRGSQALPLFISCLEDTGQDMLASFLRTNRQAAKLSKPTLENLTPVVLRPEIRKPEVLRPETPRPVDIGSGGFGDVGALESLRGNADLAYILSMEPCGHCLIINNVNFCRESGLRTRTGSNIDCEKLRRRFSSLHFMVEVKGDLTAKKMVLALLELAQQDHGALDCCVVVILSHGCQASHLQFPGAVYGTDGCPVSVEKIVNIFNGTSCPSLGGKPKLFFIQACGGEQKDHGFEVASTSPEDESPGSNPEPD
Chain of Caspase-9 (P55211 331-416 limits assumed): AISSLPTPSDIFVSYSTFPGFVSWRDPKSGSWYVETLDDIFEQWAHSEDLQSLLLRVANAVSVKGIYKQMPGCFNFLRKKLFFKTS

[2] = biological target: Ribosomal protein S6 kinase alpha-3 (Homo sapiens, UniProt P51812); assay type: functional;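 also: measured within a kinome-wide profiling panel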
Chain of Ribosomal protein S6 kinase alpha-3 (P51812 whole entry): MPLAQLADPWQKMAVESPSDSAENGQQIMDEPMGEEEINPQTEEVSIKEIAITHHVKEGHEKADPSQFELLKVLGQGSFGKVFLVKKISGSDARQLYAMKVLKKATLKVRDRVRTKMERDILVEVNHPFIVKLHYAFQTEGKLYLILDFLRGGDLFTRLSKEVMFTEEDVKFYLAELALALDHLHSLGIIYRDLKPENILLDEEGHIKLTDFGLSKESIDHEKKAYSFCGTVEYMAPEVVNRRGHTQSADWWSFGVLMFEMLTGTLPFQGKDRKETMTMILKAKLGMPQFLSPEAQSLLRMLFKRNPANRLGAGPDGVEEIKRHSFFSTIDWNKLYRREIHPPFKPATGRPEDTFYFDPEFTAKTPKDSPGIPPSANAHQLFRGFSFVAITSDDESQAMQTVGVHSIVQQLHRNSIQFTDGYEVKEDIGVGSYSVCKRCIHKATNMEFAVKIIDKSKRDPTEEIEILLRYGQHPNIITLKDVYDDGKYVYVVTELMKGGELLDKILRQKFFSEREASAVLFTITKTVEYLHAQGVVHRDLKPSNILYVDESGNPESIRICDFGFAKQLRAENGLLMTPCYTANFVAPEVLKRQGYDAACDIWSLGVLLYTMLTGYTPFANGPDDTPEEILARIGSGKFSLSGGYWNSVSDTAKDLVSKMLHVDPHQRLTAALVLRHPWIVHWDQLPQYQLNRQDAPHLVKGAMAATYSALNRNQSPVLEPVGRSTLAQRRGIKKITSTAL

[3] = biological target: T1, Mannose-6-phosphate isomerase (Homo sapiens, UniProt P34949); assay: MPI inhibition at elevated mannose 6-phosphate – biochemical, fluorescence intensity, high mannose 6-phosphate, primary screen (AID 1220)
T1 sequence (P34949 whole entry): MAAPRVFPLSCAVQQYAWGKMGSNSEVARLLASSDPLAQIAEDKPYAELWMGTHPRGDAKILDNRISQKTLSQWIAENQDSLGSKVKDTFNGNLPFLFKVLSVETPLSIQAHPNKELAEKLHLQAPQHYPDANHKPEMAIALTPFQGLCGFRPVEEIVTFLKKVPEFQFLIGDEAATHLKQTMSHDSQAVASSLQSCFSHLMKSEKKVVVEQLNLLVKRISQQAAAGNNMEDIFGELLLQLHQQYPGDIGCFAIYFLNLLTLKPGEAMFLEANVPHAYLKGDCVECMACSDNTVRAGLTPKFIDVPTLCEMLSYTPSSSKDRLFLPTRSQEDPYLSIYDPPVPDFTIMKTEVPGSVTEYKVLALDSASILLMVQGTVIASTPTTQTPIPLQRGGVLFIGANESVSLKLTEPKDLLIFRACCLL

[4] = biological target: T2, DNA repair protein RAD52 homolog (Homo sapiens, UniProt P43351); assay type: functional, biochemical
T2 sequence (P43351 whole entry): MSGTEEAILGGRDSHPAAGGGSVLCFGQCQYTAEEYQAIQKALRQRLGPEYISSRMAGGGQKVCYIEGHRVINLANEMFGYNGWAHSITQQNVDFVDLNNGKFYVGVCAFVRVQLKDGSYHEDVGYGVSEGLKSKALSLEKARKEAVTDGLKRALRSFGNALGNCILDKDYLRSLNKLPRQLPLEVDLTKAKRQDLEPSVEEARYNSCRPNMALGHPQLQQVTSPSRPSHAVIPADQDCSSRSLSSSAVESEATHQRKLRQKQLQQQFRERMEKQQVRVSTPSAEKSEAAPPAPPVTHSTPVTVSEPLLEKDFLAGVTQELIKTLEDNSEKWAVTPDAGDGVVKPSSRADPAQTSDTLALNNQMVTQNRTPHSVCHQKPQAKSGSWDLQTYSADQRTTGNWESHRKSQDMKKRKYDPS

[5] = viability of HCT116 lacking mutant beta-catenin – cell-based, human colon tumor, dose response (AID 1045); assay type: functional;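 also: HCT116 colon tumor cells with beta catenin knocked out; cells exposed to compound for 60 hours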
[6] = toxicity toward HepG2 hepatoma cells – cell-based, dry powder samples, cytotoxicity control, dose response (AID 720568); assay type: functional
Nonstructural protein 1 = Nonstructural protein 1 (Influenza A virus, UniProt Q194T2); assay type: functional, Influenza A virus (A/California/07/2009(H1N1))
Chain of Nonstructural protein 1 (Q194T2 whole entry): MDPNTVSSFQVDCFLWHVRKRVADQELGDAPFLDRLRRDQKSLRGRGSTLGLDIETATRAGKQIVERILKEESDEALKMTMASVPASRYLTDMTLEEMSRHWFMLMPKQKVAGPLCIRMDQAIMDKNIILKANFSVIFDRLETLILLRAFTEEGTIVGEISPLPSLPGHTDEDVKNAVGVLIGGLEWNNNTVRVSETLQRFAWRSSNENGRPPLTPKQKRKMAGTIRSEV

Protein skinhead-1 = biological target: T3, Protein skinhead-1 (Caenorhabditis elegans, UniProt P34707); assay type: functional
T3 sequence (P34707 whole entry): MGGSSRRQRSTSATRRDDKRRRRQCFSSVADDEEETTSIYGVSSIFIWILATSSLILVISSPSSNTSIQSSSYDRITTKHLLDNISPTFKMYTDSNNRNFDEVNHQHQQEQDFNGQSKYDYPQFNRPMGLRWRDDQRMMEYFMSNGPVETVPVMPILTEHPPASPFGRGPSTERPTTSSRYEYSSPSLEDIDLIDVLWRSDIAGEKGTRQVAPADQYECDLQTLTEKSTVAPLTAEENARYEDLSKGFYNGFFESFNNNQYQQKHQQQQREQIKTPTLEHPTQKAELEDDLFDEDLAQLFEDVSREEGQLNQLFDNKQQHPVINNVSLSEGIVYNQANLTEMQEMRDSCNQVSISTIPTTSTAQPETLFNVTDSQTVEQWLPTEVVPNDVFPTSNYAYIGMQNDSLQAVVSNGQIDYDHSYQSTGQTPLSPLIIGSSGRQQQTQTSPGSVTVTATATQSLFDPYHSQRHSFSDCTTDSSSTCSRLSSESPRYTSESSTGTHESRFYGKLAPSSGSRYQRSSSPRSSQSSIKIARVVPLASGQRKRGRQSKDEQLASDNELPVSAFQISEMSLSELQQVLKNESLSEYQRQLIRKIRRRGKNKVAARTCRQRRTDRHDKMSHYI

[7] = fluconazole-exposed Candida albicans growth modulators – fluorescence, retest, confirmation (AID 2467); assay type: functional, cell-based
[8] = biological target: Polyadenylate-binding protein 1 (Homo sapiens, UniProt P11940); assay: MLLE binding blockers, Cy5 peptide tracer – biochemical, fluorescence polarization, Cy5-PAM2 peptide, secondary, miRNA deadenylation inhibitor project, dose response (AID 602260); assay type: functional; conditions: read-out: IC50_Mean
Chain of Polyadenylate-binding protein 1 (P11940 whole entry): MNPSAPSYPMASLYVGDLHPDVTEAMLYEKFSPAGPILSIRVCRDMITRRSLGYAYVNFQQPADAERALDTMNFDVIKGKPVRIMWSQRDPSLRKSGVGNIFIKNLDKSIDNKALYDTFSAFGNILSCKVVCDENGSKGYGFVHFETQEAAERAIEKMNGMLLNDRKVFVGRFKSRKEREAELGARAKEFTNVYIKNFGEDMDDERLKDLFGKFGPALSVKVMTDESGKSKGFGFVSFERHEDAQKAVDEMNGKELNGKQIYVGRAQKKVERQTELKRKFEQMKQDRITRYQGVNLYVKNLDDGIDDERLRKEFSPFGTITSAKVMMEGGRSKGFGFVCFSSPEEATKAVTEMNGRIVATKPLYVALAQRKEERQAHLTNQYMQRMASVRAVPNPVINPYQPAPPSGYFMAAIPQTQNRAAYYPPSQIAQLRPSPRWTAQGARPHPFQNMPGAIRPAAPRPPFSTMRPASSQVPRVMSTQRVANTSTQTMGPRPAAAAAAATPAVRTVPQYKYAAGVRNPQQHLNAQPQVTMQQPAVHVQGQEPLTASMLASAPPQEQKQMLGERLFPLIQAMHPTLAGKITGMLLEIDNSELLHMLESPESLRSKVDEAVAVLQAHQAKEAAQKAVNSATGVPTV

Estrogen receptor = biological target: T4, Estrogen receptor (Homo sapiens, UniProt P03372);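 also: potency for inhibiting coactivator peptide recruitment to the receptor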
T4 sequence (P03372 whole entry): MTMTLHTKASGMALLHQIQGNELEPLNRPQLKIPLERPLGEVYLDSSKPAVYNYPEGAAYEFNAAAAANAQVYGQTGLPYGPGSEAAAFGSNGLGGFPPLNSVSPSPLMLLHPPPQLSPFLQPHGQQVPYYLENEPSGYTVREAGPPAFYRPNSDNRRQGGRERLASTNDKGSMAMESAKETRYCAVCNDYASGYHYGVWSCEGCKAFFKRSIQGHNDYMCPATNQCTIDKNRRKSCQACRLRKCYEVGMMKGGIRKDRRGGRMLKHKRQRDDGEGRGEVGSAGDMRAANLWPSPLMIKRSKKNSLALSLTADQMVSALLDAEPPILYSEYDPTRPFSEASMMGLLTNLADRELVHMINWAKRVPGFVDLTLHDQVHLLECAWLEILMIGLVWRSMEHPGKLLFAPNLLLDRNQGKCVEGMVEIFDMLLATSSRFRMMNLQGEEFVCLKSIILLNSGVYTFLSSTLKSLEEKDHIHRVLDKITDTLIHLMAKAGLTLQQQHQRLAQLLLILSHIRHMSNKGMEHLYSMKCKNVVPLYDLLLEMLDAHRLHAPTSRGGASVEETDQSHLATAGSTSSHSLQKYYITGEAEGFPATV

Genome polyprotein = Genome polyprotein (dengue virus type 2, UniProt P29990); assay: flavivirus cap methylation enzyme inhibition – biochemical, confirmation dose response, primary screen (AID 588689); assay type: functional
Chain of Genome polyprotein (P29990 2492-3391 limits assumed): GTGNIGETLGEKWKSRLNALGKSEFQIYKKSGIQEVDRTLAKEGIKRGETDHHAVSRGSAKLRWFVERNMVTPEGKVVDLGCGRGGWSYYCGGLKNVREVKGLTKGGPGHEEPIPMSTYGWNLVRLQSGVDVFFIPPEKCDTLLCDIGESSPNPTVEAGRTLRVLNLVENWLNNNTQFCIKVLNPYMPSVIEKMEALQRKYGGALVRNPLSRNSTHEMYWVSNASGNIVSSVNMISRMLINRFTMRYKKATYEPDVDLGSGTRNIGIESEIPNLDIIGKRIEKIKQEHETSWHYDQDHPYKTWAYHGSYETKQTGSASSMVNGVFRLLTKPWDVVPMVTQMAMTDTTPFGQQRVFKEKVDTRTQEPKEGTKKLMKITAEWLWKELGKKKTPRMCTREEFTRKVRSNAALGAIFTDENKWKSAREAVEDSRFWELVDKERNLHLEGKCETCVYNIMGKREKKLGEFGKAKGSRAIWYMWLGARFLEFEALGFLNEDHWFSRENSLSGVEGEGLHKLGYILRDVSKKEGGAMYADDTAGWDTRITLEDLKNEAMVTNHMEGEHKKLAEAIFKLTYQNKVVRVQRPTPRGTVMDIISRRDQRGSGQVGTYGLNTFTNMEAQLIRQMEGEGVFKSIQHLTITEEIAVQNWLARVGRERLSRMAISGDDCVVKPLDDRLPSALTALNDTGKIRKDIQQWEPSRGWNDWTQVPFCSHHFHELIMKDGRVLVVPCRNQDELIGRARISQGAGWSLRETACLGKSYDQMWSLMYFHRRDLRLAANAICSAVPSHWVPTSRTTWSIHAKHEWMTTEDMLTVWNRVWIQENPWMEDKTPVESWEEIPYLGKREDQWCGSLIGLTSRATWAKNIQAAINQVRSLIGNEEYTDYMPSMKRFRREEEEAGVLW

Chain of Proto-oncogene tyrosine-protein kinase receptor Ret (P07949 whole entry): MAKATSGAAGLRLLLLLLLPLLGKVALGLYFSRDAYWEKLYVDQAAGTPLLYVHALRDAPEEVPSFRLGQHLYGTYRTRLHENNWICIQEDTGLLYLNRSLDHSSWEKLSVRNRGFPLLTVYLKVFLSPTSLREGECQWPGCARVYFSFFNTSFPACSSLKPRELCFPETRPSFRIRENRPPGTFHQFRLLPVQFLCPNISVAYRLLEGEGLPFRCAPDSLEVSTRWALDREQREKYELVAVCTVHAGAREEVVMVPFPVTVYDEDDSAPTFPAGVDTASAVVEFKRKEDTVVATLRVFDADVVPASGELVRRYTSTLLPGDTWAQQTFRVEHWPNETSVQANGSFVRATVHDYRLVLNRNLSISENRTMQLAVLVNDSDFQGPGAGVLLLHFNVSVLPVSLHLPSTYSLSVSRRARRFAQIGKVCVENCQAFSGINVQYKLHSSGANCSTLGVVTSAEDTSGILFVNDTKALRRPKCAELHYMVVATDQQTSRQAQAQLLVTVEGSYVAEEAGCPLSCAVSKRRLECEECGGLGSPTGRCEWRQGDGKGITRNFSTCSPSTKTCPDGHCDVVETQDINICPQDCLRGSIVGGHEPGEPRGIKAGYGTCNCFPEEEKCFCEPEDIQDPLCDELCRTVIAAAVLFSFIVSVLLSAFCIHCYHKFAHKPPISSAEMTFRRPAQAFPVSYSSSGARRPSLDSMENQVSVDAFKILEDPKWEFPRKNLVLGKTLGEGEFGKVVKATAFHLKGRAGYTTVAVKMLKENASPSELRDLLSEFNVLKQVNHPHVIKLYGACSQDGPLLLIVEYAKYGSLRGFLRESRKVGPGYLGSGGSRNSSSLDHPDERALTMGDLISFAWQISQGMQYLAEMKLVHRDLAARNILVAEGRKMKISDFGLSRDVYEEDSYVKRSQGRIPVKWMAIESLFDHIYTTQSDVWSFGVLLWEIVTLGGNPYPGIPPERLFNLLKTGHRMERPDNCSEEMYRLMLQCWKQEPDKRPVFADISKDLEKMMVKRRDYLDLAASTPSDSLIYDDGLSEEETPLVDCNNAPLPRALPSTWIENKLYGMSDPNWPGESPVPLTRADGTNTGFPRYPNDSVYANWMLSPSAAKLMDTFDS

With `NC(COc1cncc(-c2ccc3c(c2)C(=Cc2ccc[nH]2)C(=O)N3)c1)Cc1ccccc1` (centres undefined) the Ki [1] was 0.00501 µM (active).
For `Oc1nc(Nc2ccc(F)cc2)cc2ccccc12`, the AC50 (Caspase-8) was 2.48 µM (active) and the AC50 (Caspase-9) was 3.04 µM (active).
With `O=C1Nc2cc(-c3ccc(O)cc3)ccc2C1=Cc1ccc[nH]1` the Ki [2] was 0.0316 µM (active).
With `CN(C)c1cc(N/N=C\c2ccccc2)nc(N(C)C)n1` the IC50 [3] was > 50 µM (not active).
In the case of `CCN(CC)CCOc1ccc2c(c1)C(=NNC(=O)c1ccccn1)c1cc(OCCN(CC)CC)ccc1-2`, the AC50 [4] is reported as < 0.15 µM (active), the EC50 [5] is reported as 2.17 µM (active) and the AC50 [6] is reported as 6.14 µM (active). For the same molecule, the IC50 (Nonstructural protein 1) was 13.8 µM (active).
For `O=C(O)c1ccc2c(c1)[C@@H]1C=CC[C@@H]1[C@H](c1ccccn1)N2`, the IC50 (Protein skinhead-1) was > 100 µM (inactive), the EC50 [7] was > 38 µM (not active) and the IC50 [8] was > 66 µM (inactive). For the same molecule, the IC50 (Estrogen receptor) was 9.53 µM (active) and the IC50 (Genome polyprotein) was 26.3 µM (active).
